Experiment [1] addresses Tyrosine-protein phosphatase non-receptor type 6, SHP-1 (Homo sapiens) (UniProt P29350). The experiment is described as follows: Ratio between dissociation constant and First-order rate constant (K inact / Ki) was determined.
The target is the same in experiment [2]. The experiment is described as follows: Dissociation constant towards SHP-1 receptor-inhibitor complex was determined using PNP as substrate.
Experiment [3] has the same target. Nature of the experiment: First-order rate constant (K inact) for conversion of the ExI complex (SHP-1 -inhibitor complex) into the covalent adduct, EI was determined using PNP as substrate.
For experiment [4], the target named is T1, Tyrosine-protein phosphatase non-receptor type 6 (Homo sapiens, UniProt P29350). Nature of the experiment: Dissociation constant towards SHP 1 receptor-inhibitor complex was determined using PNP as substrate.
T1 sequence (P29350 whole entry): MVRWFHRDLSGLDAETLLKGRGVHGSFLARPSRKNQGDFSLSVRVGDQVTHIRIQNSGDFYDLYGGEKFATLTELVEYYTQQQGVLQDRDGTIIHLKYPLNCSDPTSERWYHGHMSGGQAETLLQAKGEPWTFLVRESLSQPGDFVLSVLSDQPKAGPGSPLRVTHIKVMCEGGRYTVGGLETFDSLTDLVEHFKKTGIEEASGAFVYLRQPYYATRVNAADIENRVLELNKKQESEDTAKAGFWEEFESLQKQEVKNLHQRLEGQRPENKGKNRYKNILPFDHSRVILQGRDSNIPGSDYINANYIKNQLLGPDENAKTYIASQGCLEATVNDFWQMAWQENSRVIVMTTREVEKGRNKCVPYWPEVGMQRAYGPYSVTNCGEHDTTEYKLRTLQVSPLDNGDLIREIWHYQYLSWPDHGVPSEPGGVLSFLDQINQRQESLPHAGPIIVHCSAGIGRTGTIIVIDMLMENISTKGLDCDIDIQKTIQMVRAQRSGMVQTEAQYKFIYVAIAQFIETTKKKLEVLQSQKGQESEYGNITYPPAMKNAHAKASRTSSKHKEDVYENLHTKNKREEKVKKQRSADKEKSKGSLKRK
For experiment [5], the target named is T1, Tyrosine-protein phosphatase non-receptor type 6.
In experiment [6] the target is Tyrosine-protein phosphatase non-receptor type 6, SHP-1 (Homo sapiens) (UniProt P29350). The experiment is described as follows: Dissociation constant towards SHP 1 receptor-inhibitor complex was determined using PNP as substrate.
Chain of Tyrosine-protein phosphatase non-receptor type 6, SHP-1 (Homo sapiens) (P29350 whole entry, looked up): as the sequence (P29350 whole entry) above
For experiment [7] the target is unchanged. The experiment is described as follows: First-order rate constant (K inact) for conversion of the ExI complex (SHP 1 protein -inhibitor complex) into the covalent adduct, EI was determined using PNP as substrate.
The target of experiment [8] is T2, Tyrosine-protein phosphatase non-receptor type 1 (Homo sapiens) (UniProt P18031).
T2 sequence (whole entry): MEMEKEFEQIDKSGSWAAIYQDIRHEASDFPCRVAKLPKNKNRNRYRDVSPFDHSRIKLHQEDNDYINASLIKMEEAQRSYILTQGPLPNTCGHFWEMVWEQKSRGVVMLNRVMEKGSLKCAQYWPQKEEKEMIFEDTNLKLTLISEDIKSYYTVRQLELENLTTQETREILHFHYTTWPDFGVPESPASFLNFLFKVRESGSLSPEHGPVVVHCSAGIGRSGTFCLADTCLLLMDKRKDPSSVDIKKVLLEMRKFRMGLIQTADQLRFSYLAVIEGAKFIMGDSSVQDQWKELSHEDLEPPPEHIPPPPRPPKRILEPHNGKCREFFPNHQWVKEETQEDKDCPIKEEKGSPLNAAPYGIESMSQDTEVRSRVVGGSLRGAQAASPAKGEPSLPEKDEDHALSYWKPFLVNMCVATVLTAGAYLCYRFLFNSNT
Nature of the experiment: First-order rate constant (K inact) for conversion of the ExI complex (SHP 1 receptor -inhibitor complex) into the covalent adduct, EI was determined using PNP as substrate.

The term Ki denotes a measure of affinity in units of concentration, obtained from inhibition or displacement. Low values mean higher affinity, high ones lower affinity. What is called kinact is the maximal first-order rate at which the target is inactivated.

As for `O=C(CCl)c1ccc(F)cc1`, the Ratio in experiment [1] came to 580 M⁻¹ min⁻¹. Besides, the affinity in experiment [2] corresponds to a Ki of 380 µM. The kinact in experiment [3] is 0.22 min⁻¹.

With `O=C(CBr)c1ccc(-c2ccccc2)cc1`, in experiment [1], the Ratio is 41 M⁻¹ min⁻¹. Affinity in experiment [2] was put at a Ki of 14 µM. Moreover, the kinact in experiment [3] turned out to be 0.59 min⁻¹.

As for `O=C(CBr)c1ccccn1`, the Ratio in experiment [1] amounted to 7500 M⁻¹ min⁻¹. Moreover, the Ki in experiment [2] was found to be 173 µM. Further, the kinact in experiment [3] came out at 1.3 min⁻¹.

In the case of `O=C(CBr)c1cccc2ccccc12`, in experiment [1], the Ratio was 9400 M⁻¹ min⁻¹. The molecule also registered a Ki in experiment [2] of 92 µM. The maximal inactivation rate constant (kinact) in experiment [3] was determined as 0.86 min⁻¹.

As to `O=C(CCl)c1ccccc1` [PHENACYL CHLORIDE], the Ratio in experiment [1] is 430 M⁻¹ min⁻¹. This molecule had a Ki in experiment [2] of 480 µM. Besides, in experiment [3], the kinact amounted to 0.21 min⁻¹.

For the molecule `O=C(O)COc1ccc(C(=O)CCl)cc1`, the Ratio in experiment [1] is 710 M⁻¹ min⁻¹. For the same molecule, the affinity in experiment [2] corresponds to a Ki of 2500 µM. Moreover, the maximal inactivation rate constant (kinact) in experiment [3] was 1.8 min⁻¹.

For `O=C(O)CCC(NC(=O)[C@H](CCC(=O)O)NC(=O)CNC(=O)COc1ccc(C(=O)CBr)cc1)C(=O)O` (some centres not stated), the Ki in experiment [4] came out at 29 µM; in experiment [2], 2.8 µM. In addition, the kinact in experiment [3] came out at 1.2 min⁻¹; in experiment [5], 6.6 min⁻¹.

`O=C(CCl)c1ccc(O)c(O)c1`: the Ratio in experiment [1] came to 420 M⁻¹ min⁻¹. In experiment [2], the affinity, expressed as Ki, was 1400 µM. For the same molecule, the kinact in experiment [3] was 0.59 min⁻¹.

For `O=C(CBr)c1ccc2ccccc2c1`, the Ratio in experiment [1] turned out to be 20000 M⁻¹ min⁻¹. For the same molecule, the inhibition constant Ki in experiment [2] was found to be 25 µM. Also, the kinact in experiment [3] came out at 0.48 min⁻¹.

In the case of `O=C(CBr)c1ccc(-c2ccccc2C(=O)O)cc1`, in experiment [1], the Ratio turned out to be 4550 M⁻¹ min⁻¹. In experiment [6], this molecule showed a Ki of 220 µM. The kinact in experiment [7] worked out at 1 min⁻¹.

`NC(N)=NCCCC(NC(=O)[C@H](CCCN=C(N)N)NC(=O)CNC(=O)COc1ccc(C(=O)CBr)cc1)C(=O)O` (some centres not stated): the Ki in experiment [6] is 760 µM.

As to `O=C(CBr)c1ccc(C(F)(F)F)cc1`, the Ratio in experiment [1] turned out to be 26000 M⁻¹ min⁻¹. This molecule also yielded an inhibition constant (Ki) in experiment [2] of 14 µM. The kinact in experiment [3] turned out to be 0.37 min⁻¹.

For `O=C(CBr)c1ccc(O)cc1`, in experiment [1], the Ratio came to 9300 M⁻¹ min⁻¹. Moreover, the Ki in experiment [2] is 43 µM. The kinact in experiment [3] is 0.4 min⁻¹.

Turning to `O=C(O)COc1ccc(C(=O)CBr)cc1`, the Ratio in experiment [1] was 9300 M⁻¹ min⁻¹. In experiment [6], this molecule displayed a Ki of 193 µM. Moreover, in experiment [7], the kinact is 1.8 min⁻¹.

For the molecule `O=C(CBr)c1ccc(F)cc1`, the Ratio in experiment [1] turned out to be 9100 M⁻¹ min⁻¹. This molecule also registered a Ki in experiment [2] of 56 µM. Also, the kinact in experiment [3] was 0.51 min⁻¹.

Consider `O=C(CBr)c1ccccc1`, for which the Ratio in experiment [1] was determined as 7100 M⁻¹ min⁻¹. Further, in experiment [2], the Ki was 81 µM. The maximal inactivation rate constant (kinact) in experiment [3] was 0.58 min⁻¹.

Consider `O=C(CCl)c1ccc(F)cc1F`, for which the Ratio in experiment [1] stood at 120 M⁻¹ min⁻¹. The molecule further had a Ki in experiment [2] of 17500 µM. Further, in experiment [3], the kinact turned out to be 2.1 min⁻¹.

Turning to `N=C(N)NCCCC(NC(=O)[C@H](CCCNC(=N)N)NC(=O)CNC(=O)COc1ccc(C(=O)CBr)cc1)C(=O)O` (some centres not stated), the Ratio in experiment [1] amounted to 6300 M⁻¹ min⁻¹. Also, the kinact in experiment [8] came to 4.8 min⁻¹.

The record behind these values is ChEMBL document CHEMBL1135556, “alpha-bromoacetophenone derivatives as neutral protein tyrosine phosphatase inhibitors: structure-Activity relationship” (Bioorg Med Chem Lett, 2002).
